Experimental data published in patent publication US4568490A, “Aminopropylaminobleomycin derivatives and process for preparation thereof” (Zaidan Hojin Biseibutsu Kagaku Kenkyu Kai, priority 1981, dated 1986).

Legend:
Hela S3 cells = experiment: Growth inhibitory activity against Hela S3 cells; format: cell-based; settings: Cu-free form; Hela S3, 3 days incubation with compound
Procedure: The percentage growth inhibition was calculated using the equation: […] wherein A is the ultimate number of cells on the third day from the addition of a test sample, B is the ultimate number of cells in the control (without the addition of test sample), and C is the number of cells on the day of addition of the test sample.

[1] = tested on: Mycobacterium smegmatis ATCC 607; experiment: Antimicrobial activity, agar plate-cylinder method; format: cell-based; settings: Cu-free form; bleomycin A2 (Cu-free form) standard assumed 1,000 mcg/mg
Procedure: (§1) The activity was assayed against the above test microorganisms by the method of agar plate-cylinder, assuming the potency of bleomycin A2 (Cu-free form), used as standard, to be 1,000 mcg/mg.

Bacillus subtilis = experiment: Antimicrobial activity, agar plate-cylinder method; format: cell-based; settings: Cu-free form; bleomycin A2 (Cu-free form) standard assumed 1,000 mcg/mg
Procedure: (1) Antimicrobial activity against Mycobacterium smegmatis ATCC 697 and Bacillus subtilis.
as §1

ICR mice = experiment: Pulmonary toxicity (pulmonary fibrosis) in mice, intratracheal instillation; format: in vivo; settings: 16 μg/50 μl/mouse intratracheally, sacrificed 4 weeks after instillation; for Grade: total score of pulmonary fibrosis/total number of samples: score 0-6 points
Procedure: Male 15 weeks old ICR mice were used. Sixteen μg/50 μl/mouse of each test sample was intratracheally instilled. The mice were sacrificed 4 weeks after instillation to examine the incidence and grade of pulmonary fibrosis. The evaluation was made by comparing the number of administered mice suffering from pulmonary fibrosis and the grade of the disease.
(§2) In Tables 4A and 4B, the grade was numerically rated as follows:
(§3) 1 point: Accumulation of exudate in pulmonary alveoli and fibrosis-like change in alveolar septum.
(§4) 2 points: Fibrosis in several areas.
(§5) 4 points: Scattered fibrosis.
(§6) 6 points: Fibrosis in more than two-thirds of the total area.

ICR strain mice = experiment: Pulmonary toxicity (pulmonary fibrosis) in mice, intraperitoneal injection; format: in vivo; settings: 5 mg/kg i.p. once a day for 10 days; for Grade of pulmonary fibrosis, % / Incidence of pulmonary fibrosis, % / Incidence: number of mice suffering from pulmonary fibrosis / Grade: total score of pulmonary fibrosis/total number of test animal: autopsy after 5 weeks; for Incidence: number of mice suffering from pulmonary fibrosis: affected/total mice; for Grade: total score of pulmonary fibrosis/total number of test animal: score 0-6 points; for Grade of pulmonary fibrosis, Ratio / Incidence of pulmonary fibrosis, Ratio: reference of the ratio not stated
Procedure: (3) Pulmonary toxicity (pulmonary fibrosis) in mice.
ICR strain mice (male; 15 weeks old; 9 mice per group) were used. Each mouse was administered with a daily dose of 5 mg/kg of the test sample by intraperitoneal injection, once a day, for 10 consecutive days. After completion of the predetermined administration, the mice were kept for 5 weeks under observation, then slaughtered, and autopsied to examine the incidence and grade of pulmonary fibrosis. The evaluation was made by comparing the number of administered mice suffering from pulmonary fibrosis and the grade of the disease.
as §2, §3, §4, §5, §6

Structure (SMILES) | 50% growth inhibition concentration (ID50) of Cu--free compound against cultured Hela cell (Hela S3 cells) [µg/mL] | Antimicrobial potency of Cu--free compound, against Mycobacterium smegmatis ATCC 607 [1] [mcg potency per mg] | Antimicrobial potency of Cu--free compound, against Bacillus subtilis (Bacillus subtilis) [mcg potency per mg] | Grade of pulmonary fibrosis, % (ICR mice) [%] | Incidence of pulmonary fibrosis, % (ICR mice) [%] | Incidence: number of mice with pulmonary fibrosis/number of mice (ICR mice) | Grade: total score of pulmonary fibrosis/total number of samples (ICR mice) | Grade of pulmonary fibrosis, % (ICR strain mice) [%] | Incidence of pulmonary fibrosis, % (ICR strain mice) [%] | Incidence: number of mice suffering from pulmonary fibrosis (ICR strain mice) | Grade: total score of pulmonary fibrosis/total number of test animal (ICR strain mice) | Grade of pulmonary fibrosis, Ratio (ICR strain mice) | Incidence of pulmonary fibrosis, Ratio (ICR strain mice)
Cc1c(N)nc(C(CC(N)=O)NCC(N)C(N)=O)nc1C(=O)NC(C(=O)NC(C)C(O)C(C)C(=O)NC(C(=O)NCCc1nc(-c2nc(C(=O)NCCCN(C)CCCNCC3CCCC3)cs2)cs1)C(C)O)C(OC1OC(CO)C(O)C(O)C1OC1OC(CO)C(O)C(OC(N)=O)C1O)c1cnc[nH]1 (stereo not drawn) [compound 28, 3-{N--Methyl-N--[3'-(cyclopentylmethylamino)propyl]amino}propylaminoBLM] | 1.00 | 13595 | 16180 | – | – | – | – | – | – | – | – | – | –
Cc1c(N)nc(C(CC(N)=O)NCC(N)C(N)=O)nc1C(=O)NC(C(=O)NC(C)C(O)C(C)C(=O)NC(C(=O)NCCc1nc(-c2nc(C(=O)NCCCN(C)CCCNCc3ccc([N+](=O)[O-])cc3)cs2)cs1)C(C)O)C(OC1OC(CO)C(O)C(O)C1OC1OC(CO)C(O)C(OC(N)=O)C1O)c1cnc[nH]1 (stereo not drawn) [MNBZ, 3-(N-methyl-N-3-p-nitro-benzylamino-propyl)aminopropylamino-bleomycin, reference compound] | – | – | – | 104 | 89 | 8/9 | 28/27 | – | – | – | – | – | –
Cc1c(N)nc(C(CC(N)=O)NCC(N)C(N)=O)nc1C(=O)NC(C(=O)NC(C)C(O)C(C)C(=O)NC(C(=O)NCCc1nc(-c2nc(C(=O)NCCCN(C)CCCN(Cc3ccc(OCc4ccc(Cl)c(Cl)c4)c(OCc4ccc(Cl)c(Cl)c4)c3)Cc3ccc(OCc4ccc(Cl)c(Cl)c4)c(OCc4ccc(Cl)c(Cl)c4)c3)cs2)cs1)C(C)O)C(OC1OC(CO)C(O)C(O)C1OC1OC(CO)C(O)C(OC(N)=O)C1O)c1cnc[nH]1 (stereo not drawn) [compound 49, 3-{N--Methyl-N--[3'(bis(3",4"-di(m,p-dichlorobenzyloxy)benzyl)amino)propyl]amino}propylaminoBLM] | 0.063 | 23 | 8 | – | – | – | – | 0 | 0 | 0/9 | 0/27 | 0.00 | 0.00
Cc1c(N)nc(C(CC(N)=O)NCC(N)C(N)=O)nc1C(=O)NC(C(=O)NC(C)C(O)C(C)C(=O)NC(C(=O)NCCc1nc(-c2nc(C(=O)NCCCN(C)CCCN(Cc3ccc(OCc4ccc(OCc5ccccc5)cc4)cc3)Cc3ccc(OCc4ccc(OCc5ccccc5)cc4)cc3)cs2)cs1)C(C)O)C(OC1OC(CO)C(O)C(O)C1OC1OC(CO)C(O)C(OC(N)=O)C1O)c1cnc[nH]1 (stereo not drawn) [compound 51] | 0.12 | 163 | 46 | – | – | – | – | 0 | 0 | 0/9 | 0/27 | 0.00 | 0.00
Cc1c(N)nc(C(CC(N)=O)NCC(N)C(N)=O)nc1C(=O)NC(C(=O)NC(C)C(O)C(C)C(=O)NC(C(=O)NCCc1nc(-c2nc(C(=O)NCCCN(C)CCCN(Cc3ccc(OCc4ccc(Cl)cc4)c(OCc4ccc(Cl)cc4)c3)Cc3ccc(OCc4ccc(Cl)cc4)c(OCc4ccc(Cl)cc4)c3)cs2)cs1)C(C)O)C(OC1OC(CO)C(O)C(O)C1OC1OC(CO)C(O)C(OC(N)=O)C1O)c1cnc[nH]1 (stereo not drawn) [compound 48, 3-{N--Methyl-N--[3'-(bis(3",4"di(p-chlorobenzyloxy)benzyl)amino)propyl]amino}propylaminoBLM] | 0.058 | 14 | 8 | – | – | – | – | 0 | 0 | 0/9 | 0/27 | 0.00 | 0.00
Cc1c(N)nc(C(CC(N)=O)NCC(N)C(N)=O)nc1C(=O)NC(C(=O)NC(C)C(O)C(C)C(=O)NC(C(=O)NCCc1nc(-c2nc(C(=O)NCCCN(C)CCCNCC3CCCCCC3)cs2)cs1)C(C)O)C(OC1OC(CO)C(O)C(O)C1OC1OC(CO)C(O)C(OC(N)=O)C1O)c1cnc[nH]1 (stereo not drawn) [compound 31, 3-{N--Methyl-N--[3'-(cycloheptylmethylamino)propyl]amino}propylaminoBLM] | 0.48 | 25924 | 20143 | – | – | – | – | – | – | – | – | – | –
Cc1c(N)nc(C(CC(N)=O)NCC(N)C(N)=O)nc1C(=O)NC(C(=O)NC(C)C(O)C(C)C(=O)NC(C(=O)NCCc1nc(-c2nc(C(=O)NCCCNCCCNC(C)c3ccccc3)cs2)cs1)C(C)O)C(OC1OC(CO)C(O)C(O)C1OC1OC(CO)C(O)C(OC(N)=O)C1O)c1cnc[nH]1 (stereo not drawn) [PEPP, 3-[3-(N-1-phenylethyl)aminopropyl]aminopropylamino-bleomycin, reference compound] | – | – | – | 56 | 89 | 8/9 | 15/27 | – | – | – | – | – | –
Cc1c(N)nc(C(CC(N)=O)NCC(N)C(N)=O)nc1C(=O)NC(C(=O)NC(C)C(O)C(C)C(=O)NC(C(=O)NCCc1nc(-c2nc(C(=O)NCCCN(C)CCCNCCc3ccc(Cl)cc3)cs2)cs1)C(C)O)C(OC1OC(CO)C(O)C(O)C1OC1OC(CO)C(O)C(OC(N)=O)C1O)c1cnc[nH]1 (stereo not drawn) [compound 1, 3-{N--Methyl-N--[3'-(2"-p-chlorophenylethylamino)propyl]amino}propylaminoBLM] | 0.54 | 16800 | 13266 | – | – | – | – | 11 | 22 | 2/9 | 3/27 | 0.13 | 0.35
Cc1c(N)nc(C(CC(N)=O)NCC(N)C(N)=O)nc1C(=O)NC(C(=O)NC(C)C(O)C(C)C(=O)NC(C(=O)NCCc1nc(-c2nc(C(=O)NCCCN(C)CCCNCC3CCCCC3)cs2)cs1)C(C)O)C(OC1OC(CO)C(O)C(O)C1OC1OC(CO)C(O)C(OC(N)=O)C1O)c1cnc[nH]1 (stereo not drawn) [compound 29, 3-{N--Methyl-N--[3'-(cyclohexylmethylamino)propyl]amino}propylaminoBLM] | 0.63 | 15414 | 12148 | – | – | – | – | – | – | – | – | – | –
Cc1c(N)nc(C(CC(N)=O)NCC(N)C(N)=O)nc1C(=O)NC(C(=O)NC(C)C(O)C(C)C(=O)NC(C(=O)NCCc1nc(-c2nc(C(=O)NCCCN(C)CCCNCCC3CCCCC3)cs2)cs1)C(C)O)C(OC1OC(CO)C(O)C(O)C1OC1OC(CO)C(O)C(OC(N)=O)C1O)c1cnc[nH]1 (stereo not drawn) [compound 30, 3-{N--Methyl-N--[3'-(cyclohexylethylamino)propyl]amino}propylaminoBLM] | 0.56 | 35030 | 14440 | – | – | – | – | – | – | – | – | – | –
Cc1c(N)nc(C(CC(N)=O)NCC(N)C(N)=O)nc1C(=O)NC(C(=O)NC(C)C(O)C(C)C(=O)NC(C(=O)NCCc1nc(-c2nc(C(=O)NCCCNC(C)c3ccccc3)cs2)cs1)C(C)O)C(OC1OC(CO)C(O)C(O)C1OC1OC(CO)C(O)C(OC(N)=O)C1O)c1c[nH]cn1 [PEP, 3-[(S)-1'-phenylethylamino]propylamino-bleomycin, reference compound] | – | – | – | 150 | 75 | 6/8 | 36/24 | – | – | – | – | – | –
